Test results reported in patent US11242321B2, “Salt forms of organic compound” (KAINOS MEDICINE INC., priority 2018, dated 2022).

Tests used:
[1] = Aqueous solubility assessment of salt screen solids (visual); conditions: Ca. 5 mg in up to 4000 μL water (1.25 mg/ml), shaken overnight at 50° C.
Experimental: Aqueous solubility assessment was performed using Ca. […] These samples were added to aliquots of deionized water up to a maximum of 4000 μL with the samples being shaken between additions to encourage dissolution prior to a visual inspection.

[2] = Aqueous solubility, 24 h shake, gravimetric; assay type: physicochemical; conditions: thermodynamic from solid, deionized water
Experimental: Ca. 50 mg of each of the salts were weighed into a 2 mL HPLC vial prior to the addition of 1 mL of deionized water. […] The experiment was also repeated at 50° C.

FaSSIF/FeSSIF solubility = assay type: physicochemical; conditions: thermodynamic from solid, shaken 24 h at 37° C.
Experimental: Ca. 25 mg of each of the salts were weighed into a 2 mL HPLC vial prior to the addition of 1 mL of Fasting State Simulated Intenstinal Fluid (FaSSIS) solution. […] The experiment was also repeated using Fed State Simulated Intestinal Fluid (FeSSIF) solution.

[3] = Stability at 40° C./75% RH; assay type: physicochemical
pH1 stability = assay type: physicochemical; conditions: pH 1 buffer, 4 h at 37° C.
Experimental: Ca. 25 mg of each of the salts were weighed into a 2 mL HPLC vial prior to the addition of 1 mL of pH 1 buffer. The samples were then shaken for 4 h at 37° C. before being filtered into SPE cartridges and dried overnight.

pH of saturated solution = assay type: physicochemical; conditions: saturated solution in deionized water, room temperature
Experimental: A saturated solution of each of the salts was prepared in 5 mL of deionized water at room temperature prior to analysis.

[4] = Dynamic vapor sorption (DVS); assay type: physicochemical
Experimental: SMS DVS Intrinsic dynamic vapour sorption instrument using DVS-Intrinsic control software v1.0.6.0. Analysis of the data was performed using the DVS analysis suite v7.0.13.1 macro program embedded in Microsoft Excel. Analysis was performed as a wt % change from 0-90% RH with isothermal plots also being examined.
Ca. 10-15 mg of sample was weighed into a stainless steel DVS basket before submitting for analysis. The samples were analysed over the range of 0-90% RH with a maximum time of 6 hours per humidity stage. Each sample was exposed to a double cycle. XRPD analysis of all samples was performed post-DVS.

For `O=C(CSc1ccc(Br)cc1)Nc1cn(CCc2ccccc2)nc1C(=O)[O-].[Na+]` [sodium salt, 4-(2-((4-bromophenyl)thio)acetamido)-1-phenethyl-1H-pyrazole-3-carboxylic Acid Sodium Salt], the “Solubility assessment (dissolution in deionized water), salt from DIPE” value ([1]; salt prepared from DIPE) was “Complete”, the “Solubility assessment (dissolution in deionized water), salt From Ethanol” value ([1]; salt prepared from ethanol) was “Complete” and the solubility at 24 h ([2]; shaken 24 h at 25° C., read-out: Aqueous solubility @ 25° C.) was 2300 µg/mL. The solubility at 24 h ([2]; shaken 24 h at 50° C.) was 2400 µg/mL, the solubility at 24 h (FaSSIF/FeSSIF solubility; FaSSIF, read-out: FaSSIF solubility @ 37° C.) was 4000 µg/mL and the solubility at 24 h (FaSSIF/FeSSIF solubility; FeSSIF, read-out: FeSSIF solubility @ 37° C.) was 3800 µg/mL. The “Observation post stability (40° C./75% RH)” value [3] was “No visible change”, the “XRPD post stability (40° C./75% RH)” value [3] was “Crystalline - no change in form” and the “Chemical purity post stability (40° C./75% RH)” value ([3]; HPLC) was >99.9% (by peak area). For the same compound, the “Observations post stability (pH 1 for 4 h)” value (pH1 stability) was “No visual change”, the “XRPD post stability (pH 1 for 4 h)” value (pH1 stability) was “Partially crystalline: change in crystalline” and the “Chemical purity post stability (pH 1 for 4 h)” value (pH1 stability; HPLC) was >99.9% (by peak area). The “1H NMR post stability (pH 1 for 4 h)” value (pH1 stability; cell continues: salt form is no longer present) was “No chemical shifts, indicating that salt form”, the “pH of rm temp sat'd sol'n” value (pH of saturated solution) was 10.31 and the “DVS mass increase between 0-90% RH, first cycle” value ([4]; 0-90% RH, first cycle) was “Ca. 11.7% mass increase between 0-90% RH on”. The “XRPD post DVS” value ([4]; after double cycle 0-90% RH) was “Crystalline - no change in form”.
